≈ marks a conversion by molar mass, not a printed value.
Settings: for aqueous solubility: pH 6.8

| Compound | MDR1-MDCK efflux ratio | aqueous solubility | intrinsic clearance, human liver microsomes | intrinsic clearance, rat liver microsomes |
| --- | --- | --- | --- | --- |
| COc1cc([C@H](CC(=O)O)c2ccc(C)c(CN3C[C@@H](C)Oc4ccccc4S3(=O)=O)c2)cc2nnn(C)c12 | 99.5 |  |  |  |
| CN(C)S(=O)(=O)Nc1ccc2sncc2c1 |  | 53.6 µg/mL (≈ 208 µM) |  |  |
| CCCc1noc2nc(-c3ccncc3)cc(C(=O)O)c12 | 0.841 |  | ≤ 4.74 mL/min/kg | 18.1 mL/min/kg |
| Cc1cnc(-n2cnnc2)c(-c2cccc(Cl)c2Cl)c1 | 2.25 | 18.6 µg/mL (≈ 61 µM) | 6.9 mL/min/kg | 165 mL/min/kg |
| CC(=O)NC[C@H]1C[C@]2(C)[C@@H](CCCC[C@]2(C)O)N1CC1(O)CCOCC1 | 9.46 |  | 8.98 mL/min/kg | 41.2 mL/min/kg |
| Cc1noc(NCc2ccc(F)cc2C)n1 | 0.589 |  | ≤ 4.74 mL/min/kg | 68.3 mL/min/kg |
| O=C(CSCCCn1c(=O)[nH]c2ccccc21)N1CCCCC1 |  | 59.6 µg/mL (≈ 179 µM) | 68.3 mL/min/kg | 760 mL/min/kg |
| Cc1ccc(CNc2cncc(-n3nc(C)cc3C)n2)cn1 |  |  | 23.4 mL/min/kg | 252 mL/min/kg |
| COc1cc(C(C)C)c2c(c1)S(=O)(=O)N(COc1cc(=O)n3cccc(OCCN4CCCCC4)c3n1)C2=O | 91.5 | 53.4 µg/mL (≈ 95.9 µM) | 162 mL/min/kg | 250 mL/min/kg |
| Cc1nn(C)c(C)c1NC(=O)CN1CCC2(CCCCC2)CC1 | 1.6 | 87.3 µg/mL (≈ 274 µM) | 12.4 mL/min/kg | 497 mL/min/kg |
| COc1ccc(OCC(=O)N2CCN(C)CC2)cc1 | 0.763 | 52.5 µg/mL (≈ 199 µM) | ≤ 4.74 mL/min/kg | 133 mL/min/kg |
| Cc1nn(C)cc1CNc1nc(-c2cnccn2)nc2sc3c(c12)CCCC3 | 1.92 | 50.6 µg/mL (≈ 129 µM) | 273 mL/min/kg | 2410 mL/min/kg |
| CNCc1cc(N(C)C)nc(C2CCCN2C(=O)CCc2c[nH]c3ccccc23)n1 (configuration not stated) | 35.1 |  | 50.6 mL/min/kg | 390 mL/min/kg |
| C[C@H]1CN2C[C@H](O)C[C@@H]2CN1Cc1cccc2ccccc12 | 1.69 |  | 24.2 mL/min/kg | 1910 mL/min/kg |
| Cc1cccc(C(=O)N(C)CCc2cnccn2)c1 | 0.8 | 30.4 µg/mL (≈ 119 µM) | 13 mL/min/kg | 141 mL/min/kg |
| CONC(=O)c1ccccc1Nc1cc(Nc2cc(C)nn2C(C)C)ncc1Cl |  | 24.2 µg/mL (≈ 58.4 µM) | 66.2 mL/min/kg | 262 mL/min/kg |

| Compound | MDR1-MDCK efflux ratio | aqueous solubility | intrinsic clearance, human liver microsomes | intrinsic clearance, rat liver microsomes |
| --- | --- | --- | --- | --- |
| Cn1c(CNC(=O)Cc2cccc3ccccc23)nc2ccccc21 | 2.33 | 10.1 µg/mL (≈ 30.5 µM) | 187 mL/min/kg | 1590 mL/min/kg |
| CC(=O)N(CC(N)=O)c1ccc(C)cc1 |  |  | 5.04 mL/min/kg | 42.8 mL/min/kg |
| CC(C)c1cc(CN(C)Cc2c[nH]nc2-c2ccc(F)cc2)no1 | 1.01 | 22.2 µg/mL (≈ 67.8 µM) | 325 mL/min/kg | 1780 mL/min/kg |
| COc1ccc(-c2ccc(CN(CCN3CCOCC3)Cc3cccnc3)cc2)cc1 | 1.48 | 63.2 µg/mL (≈ 151 µM) | 447 mL/min/kg | 1580 mL/min/kg |
| Cc1nc(C)n(-c2ccccc2NC(=O)c2cc(C#N)cn2C)n1 |  |  | 11.6 mL/min/kg | 163 mL/min/kg |
| N#CCN(C(=O)c1cn(-c2ccc(Br)cc2)cn1)C1CC1 | 1.04 | 65.3 µg/mL (≈ 189 µM) | ≤ 4.74 mL/min/kg | 57.3 mL/min/kg |
| CS(=O)(=O)Cc1cc(-c2ccccc2)on1 |  | 31.3 µg/mL (≈ 132 µM) |  |  |
| Cc1cc(C)c(-n2cccn2)c(-c2cn(C[C@@H]3CCCO3)nn2)c1 | 1.18 | 26.4 µg/mL (≈ 81.7 µM) | 68 mL/min/kg | 507 mL/min/kg |
| CC(C)OC(=O)N1CCC(Oc2ncnc3c2cnn3-c2ccc(S(C)(=O)=O)cc2F)CC1 | 1.61 |  |  |  |
| Cc1cc(NC(=O)N2Cc3cc4c(cc3C3(CCCC3)C2)OCCO4)no1 | 0.72 | 0.3 µg/mL (≈ 0.812 µM) |  |  |
| O=C(c1cc(Oc2cccc(F)c2)nc2ccccc12)N1CCOCC1 |  | 16.1 µg/mL (≈ 45.7 µM) |  |  |
| CSc1ccc(NC(=O)Cn2nc(C3CC3)ccc2=O)cc1 | 1.33 | 4.75 µg/mL (≈ 15.1 µM) | 175 mL/min/kg | 611 mL/min/kg |
| CN(C)Cc1ccnc(NC(=O)c2ccsc2)c1 |  |  | 6.67 mL/min/kg | 397 mL/min/kg |
| Fc1ccc(F)c(CN2CCN(Cc3ccc4c(c3)OCO4)CC2)c1 | 0.645 | 26.9 µg/mL (≈ 77.7 µM) | 105 mL/min/kg | 409 mL/min/kg |
| CCc1nnc(Sc2nc3cc(C)nn3c3ccccc23)[nH]1 | 1.21 |  | 13.7 mL/min/kg | 139 mL/min/kg |
| CC(C)c1cc(NC(=O)Cn2nc(-c3ccccc3)ccc2=O)[nH]n1 |  | 6.51 µg/mL (≈ 19.3 µM) |  |  |

Source: the Biogen ADME set (Fang et al. 2023)
